# Results from patent US20090202661A1, “BEVERAGE MANUFACTURE, PROCESSING, PACKAGING AND DISPENSING USING ELECTROCHEMICALLY ACTIVATED WATER” (priority 2008, published 2009).
# Assay: Residue neutralization: recovery and breakdown of pesticide and fungicide active ingredients after exposure to anolyte dilutions
# Assay type: physicochemical
# Settings: 5 minutes, ambient temperature
# Procedure: The breakdown of pesticide and fungicide residues by an oxidant ECA anolyte solution was evaluated as follows.
# The oxidant anolyte solution was diluted using a 10 fold dilution series. As a control for this test, the potential for non-ECA based hydrolysis or chemical breakdown was assessed using two untreated control solutions, one being the tap water used as the diluent in the anolyte dilution series and the other being the non-activated brine solution that was used as the electrolysis feed solution prior to electro-activation.
# The experiment was performed to contrast the difference in degree of recovery of a variety of pesticide and fungicide active ingredients (AI's) after the tap water and the various diluted anolyte solutions were ‘spiked’ with the same AI's at fixed inclusion rates. In each case, a one ppm cocktail of the active ingredients was added to a 100 ml aliquot of the test or control solution sample. The test samples were agitated with a mechanical stirrer for 5 minutes at ambient temperature and then extracted with an organic solvent and analyzed by either gas or liquid chromatography.
# [1] = 0.25% Brine (nonactivated control)
SMILES,ng found [1],% breakdown (1% Anolyte solution) [%],ng found (1% Anolyte solution) [ng],% breakdown (10% anolyte solution) [%],ng found (10% anolyte solution) [ng],% breakdown (100% anolyte solution) [%],ng found (100% anolyte solution) [ng]
CNC(=O)O/N=C/C(C)(C)[S+](C)[O-] (stereo not shown) [Aldicarb sulfoxide],0.672 ng,15.8,0.514,100,0.000,100,0.000
CNC(=O)O/N=C/C(C)(C)SC [Aldicarb],0.920 ng,49.5,0.425,100,0.000,100,0.000
COP(=S)(OC)SCn1nnc2ccccc2c1=O [Azinphos-methyl],2.341 ng,0.0,2.393,100,0.000,100,0.000
CCCCNC(=O)n1c(NC(=O)OC)nc2ccccc21 [Benomyl],0.970 ng,8.0,0.890,45,0.520,100,0.000
CCCCc1c(C)nc(NCC)nc1OS(=O)(=O)N(C)C [Bupirimate],1.250 ng,0.0,1.233,52.0,0.730,100,0.074
CCOP(=S)(OCC)Oc1nc(Cl)c(Cl)cc1Cl [Chlorpyrifos],1.014 ng,0.0,1.039,100,0.05,100,0.049
Cc1cc(C2CC2)nc(Nc2ccccc2)n1 [Cyprodinil],1.297 ng,0.0,1.356,96.3,0.068,100,0.026
CO/N=C(/C(=O)OC)c1ccccc1COc1ccccc1C [Kresoxim-methyl],1.300 ng,0.0,1.328,0.0,1.344,100,0.035
CCOC(=O)CC(SP(=S)(OC)OC)C(=O)OCC (stereo not shown) [Malathion],"1,327 ng",0.0,1.368,100,0.066,100,0.067
CNC(=O)ON=C(C)SC [Methomyl],1.006 ng,36.6,0.634,100,0.000,100,0.000
